Test results as given in US20110217300A1, “Quinazolinone Compounds and Methods of Use Thereof” (priority 2007, published 2011).
Read-outs that look alike come from different tables or passages of the source.

Experiments:
NCI-H460 = assay: MTS cell viability assay; assay type: cell-based, human
In short: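 Cells in DMEM (4.5 g/L glucose) with 10% heat-inactivated FBS, 10 mM L-glutamine and 10 mM Hepes pH 7.5 at 37° C./5% CO2 were seeded at 100-5000 cells/well, then exposed to serially diluted compound (0.33% DMSO final) for 72 hours. Viability read by MTS/PMS reduction, absorbance 490 nm; GI50 reported.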

HT29 xenograft = assay: Xenograft model; assay type: in vivo, mice; conditions: HT29, Colon; procedures and dosages of Examples 106-108
SK-MEL-28 = assay: MTS cell viability assay; assay type: cell-based; conditions: Malignant melanoma
Method: (§1) Cell viability was determined by measuring the activity of dehydrogenase enzymes in metabolically active cells using a tetrazolium compound, MTS. The assay was performed as described in Promega Technical Bulletin No. 169 (CellTiter 96 Aqueous Non-Radioactive Cell Proliferation Assay). Two human cancer cell lines were assayed (see, Table 1). Cells were maintained at 37° C. and 5% CO2 in DMEM media (4.5 g/L glucose) supplemented with 10% heat-inactivated FBS, 10 mM L-glutamine, and 10 mM Hepes pH 7.5. Briefly, cells were seeded in 96-well plates as set forth in Table 1 and incubated for 16-24 hours. Candidate compounds were serially diluted in DMSO, further diluted in cell culture media, and then added to cells (final DMSO concentration of 0.33%). Cells were incubated in the presence of candidate compound for 72 hours. MTS stock solution (MTS 2 gm/L, PMS […] in PBS) was added to the cells (final concentration MTS […] and PMS 7.67 mg/L) and incubated for 4 hours. SDS was added to a final concentration of 1.4% and absorbance at 490 nm was measured within two hours using a plate reader. […] GI50 values were given in Table 2 for the compounds listed. The Compound Numbers in Table 2 correspond to the numbers listed parenthetically in the Example titles. Where multiple measurements were made by different technicians, both values are given.
(§2) Cell viability was determined for N-(3-amino-propyl)-3-chloro-N—[(R)-1-(7-chloro-4-oxo-3-phenylamino-3,4-dihydro-quinazolin-2-yl)-but-3-ynyl]-2-fluoro-benzamide (compound I of Table 2). The cell viability assay of Example 105 was used. GI50 was determined using a variety of cell lines. Cells were plated at 100-5000 cells per well. At least 2 replicates were performed. Where multiple measurements were made by different technicians, both values are given.

CAKI-2 = assay: MTS cell viability assay; assay type: cell-based; conditions: Homo sapiens, kidney
Method: as §1, §2

SW780 = assay: MTS cell viability assay; assay type: cell-based; conditions: Homo sapiens, bladder
Method: as §1, §2

PLC/PRF/5 = assay: MTS cell viability assay; assay type: cell-based; conditions: Homo sapiens, liver
Method: as §1, §2

SK-HEP-1 = assay: MTS cell viability assay; assay type: cell-based; conditions: Homo sapiens, SK-HEP1, Liver adenocarcinoma
Method: as §1, §2

NCI-H1993 = assay: MTS cell viability assay; assay type: cell-based; conditions: Lung adenocarcinoma
Method: as §1, §2

RKO = assay: MTS cell viability assay; assay type: cell-based; conditions: Homo sapiens, Colon Carcinoma
Method: as §1, §2

MIA-PaCa2 = assay: MTS cell viability assay; assay type: cell-based; conditions: Homo sapiens, MIA PaCa-2, Pancreas
Method: as §1, §2

NCI-H358 = assay: MTS cell viability assay; assay type: cell-based; conditions: Homo sapiens, Non-small cell lung cancer, brancioalveolar carcinoma
Method: as §1, §2

HPAF-II = assay: MTS cell viability assay; assay type: cell-based; conditions: Homo sapiens, pancreas
Method: as §1, §2

A375 = assay: MTS cell viability assay; assay type: cell-based; conditions: skin
Method: as §1, §2

CFPPAC-1 = assay: MTS cell viability assay; assay type: cell-based; conditions: Pancreasductal adenocarcinoma, cystic fibrosis
Method: as §1, §2

LS174T = assay: MTS cell viability assay; assay type: cell-based; conditions: Homo sapiens, Colorectal Carcinoma
Method: as §1, §2

Kato III = assay: MTS cell viability assay; assay type: cell-based; conditions: Homo sapiens, Gastric Carcinoma
Method: as §1, §2

LS411N = assay: MTS cell viability assay; assay type: cell-based; conditions: Homo sapiens, LS-411N, colon
Method: as §1, §2

RT-112 = assay: MTS cell viability assay; assay type: cell-based; conditions: Human urinary bladder cell carcinoma
Method: as §1, §2

K562 = assay: MTS cell viability assay; assay type: cell-based; conditions: CML
Method: as §1, §2

SK-LMS-1 = assay: MTS cell viability assay; assay type: cell-based; conditions: Leiomyosarcoma
Method: as §1, §2

WM-266.4 = assay: MTS cell viability assay; assay type: cell-based; conditions: Homo sapiens, WM 266-4, Melanoma
Method: as §1, §2

HT-1080 = assay: MTS cell viability assay; assay type: cell-based; conditions: Homo sapiens, Fibrosarcoma
Method: as §1, §2

WIDR = assay: MTS cell viability assay; assay type: cell-based; conditions: Homo sapiens, Colorectal adenocarcinoma
Method: as §1, §2

COLO-205 = assay: MTS cell viability assay; assay type: cell-based; conditions: Homo sapiens, colon
Method: as §1, §2

SNU-16 = assay: MTS cell viability assay; assay type: cell-based; conditions: Homo sapiens, Gastric Carcinoma
Method: as §1, §2

PANC-1 = assay: MTS cell viability assay; assay type: cell-based; conditions: Homo sapiens, Pancreas epithelioid carcinoma
Method: as §1, §2

CAKI-1 = assay: MTS cell viability assay; assay type: cell-based; conditions: Homo sapiens, kidney
Method: as §1, §2

CCS292 = assay: MTS cell viability assay; assay type: cell-based; conditions: Clear cell Sarcoma
Method: as §1, §2

C#CC[C@H](c1nc2cc(Cl)ccc2c(=O)n1Nc1ccccc1)N(CCCN)C(=O)c1cccc(Cl)c1F [Compound 1, N-(3-Amino-propyl)-3-chloro-N—[(R)-1-(7-chloro-4-oxo-3-phenylamino-3,4-dihydro-quinazolin-2-yl)-but-3-ynyl]-2-fluoro-benzamide]
GI50 (NCI-H460; Homo sapiens, NCI-H460, 72 h, read-out: MTS NCI H460 GI50, NCI-H460 non small cell lung, 72 hours): 360 nM | GI50 (NCI-H460; Homo sapiens, NCI-H460, read-out: Average GI50, NCI-H460, Large cell lung carcinoma (Table 3)): 1100 nM | GI50 (NCI-H460; read-out: Average GI50, NCI-H460, Large cell lung carcinoma (Table 3), listed as I): 1050 nM | Xenograft Outcome (approximate percent growth inhibition) (HT29 xenograft): ~30% | GI50 (SK-MEL-28; Homo sapiens, SK-MEL-28, SK-MEL-28): 2160 nM | GI50 (SK-MEL-28; SK-MEL-28, listed as I): 3130 nM | GI50 (CAKI-2): 4240 nM | GI50 (SW780): 220 nM | GI50 (PLC/PRF/5): 135 nM | GI50 (SK-HEP-1): 319 nM | GI50 (NCI-H1993; Homo sapiens, NCI-H1993, NCI-H1993): 2420 nM | GI50 (NCI-H1993; NCI-H1993, listed as I): 1660 nM | GI50 (RKO): 110 nM | GI50 (MIA-PaCa2): 259 nM | GI50 (NCI-H358): 190 nM | GI50 (HPAF-II): 2060 nM | GI50 (A375; A375, listed as I): 752 nM | GI50 (A375; Homo sapiens, A-375, A375): 405 nM | GI50 (CFPPAC-1): 2080 nM | GI50 (LS174T): 796 nM | GI50 (Kato III): 202 nM | GI50 (LS411N): 237 nM | GI50 (RT-112): 53 nM | GI50 (K562; Homo sapiens, K562, K562): 133 nM | GI50 (K562; K562, listed as I): 184 nM | GI50 (SK-LMS-1): 2210 nM | GI50 (WM-266.4): 2300 nM | GI50 (HT-1080): 149 nM | GI50 (WIDR): 783 nM | GI50 (COLO-205): 106 nM | GI50 (SNU-16): 136 nM | GI50 (PANC-1): 1170 nM | GI50 (CAKI-1): 2170 nM | GI50 (CCS292): 833 nM
